In US6887846B2, “Antimicrobial amino acid sequences derived from alpha-melanocyte-stimulating hormone” (priority 1999, dated 2005):
Entries after “also recorded” stand apart in the source; their conditions may differ.

Assays:
[1] = tested on: C. albicans (clinical isolate); test: Trial of melanocortin peptides on C. albicans viability (colony formation); assay type: cell-based; details: for C. albicans colony forming units (CFU): peptide 10^−15 to 10^−4M, 2 hours at 37° C., compared to controls; for reduction of C. albicans CFU at higher concentrations: up to 10^-4M
Procedure: S. aureus (ATCC 29213) and C. albicans (clinical isolate) were obtained from the collection of the Department of Microbiology, Ospedale Maggiore di Milano. C. albicans were maintained on Sabouraud'[…] periodically transferred to Sabouraud's agar plates and incubated for 48 hours at 28° C. To prepare stationary growth phase yeast, a colony was taken from the agar plate and transferred into 30 ml Sabouraud-dextrose broth and incubated for 72 hours at 32° C. Cells were centrifuged at 1000×g for 10 minutes and the pellet was washed twice with distilled water. Cells were counted and suspended in Hank's balanced salt solution (“HBSS”) to the desired concentration. […] Cells were then washed in cold distilled water and diluted with HBSS to a concentration of 100 organisms/ml. One ml aliquots were dispensed on blood agar plates and incubated for 48 hours at 37° C. Organism viability was estimated from the number of colonies formed. […] There were at least six replicates for each concentration of peptide. […] The reaction was stopped after 3 minutes by the addition of ice cold ethanol. cAMP was measured in duplicate using a commercial enzyme immunoassay (EIA) kit (Amersham, United Kingdom) after extraction via the liquid-phase method according to manufacturer's instructions.

[2] = tested on: S. aureus; test: Influence on urokinase-induced growth enhancement of S. aureus; assay type: cell-based; details: peptide 10^−6M, urokinase 500 U, 4 hours at 37° C.; p<0.001 vs urokinase alone
From the text: In experiments on S. aureus we determined the influence of α-MSH on urokinase-induced growth-enhancement. Hart, D. A., Loule, T., Krulikl, W., Reno, C., Staphylococcus Aureus Strains Differ in Their in Vitro Responsiveness to Human Urokinase: Evidence That Methicillin-resistant Strains Are Predominantly Nonresponsive to the Growth-enhancing Effects of Urokinase, Can. J. Microbiol. 42, 1024-31 (1966). […] Appropriate dilutions of S. aureus were dispensed on agar plates and colonies counted after 24 hours incubation at 37° C.

[3] = tested on: C. albicans killing by human neutrophils; test: Trial of α-MSH peptides on C. albicans killing by human neutrophils; assay type: cell-based; details: 2 hours at 37° C., vs medium alone
Procedure: Venous blood (20 ml) from healthy volunteers was anticoagulated with heparin. Neutrophils were isolated using dextran sedimentation and Ficoll-Hypaque (Sigma Chemical Co., St. Louis, Mo., USA) centrifugation. Erythrocytes were lysed via hypotonic shock. Neutrophils represented at least 97% of the cell suspension. Cell viability, estimated by trypan blue exclusion, was >98%. Neutrophils were suspended to final concentration in HBSS. […] After incubation, the culture tubes were placed on ice to stop growth and extracellular organisms were washed twice with centrifugation at 1000×g at 4° C. A 2.5% sodium desoxycholate solution was added to the suspension and the tubes were shaken for 5 min. Cold distilled water was added to obtain a suspension of 10^6 cells/ml. Two 1/100 serial dilution in HBSS were made to obtain a final suspension of 100 cells/ml. Aliquots of 1 ml were dispensed on blood agar plates and incubated for 48 hours at 37° C. Colony forming units (“CFU”) were counted at the end of the incubation period. Experiments were run in triplicate and repeated using blood from 5 different donors.

[4] = tested on: cAMP; test: Trial of α-MSH peptides on cAMP accumulation in C. albicans; assay type: cell-based; details: 10^−6M; for cAMP content of C. albicans: 3 minutes at 37° C., permeabilized yeast; for increase in cAMP compared with forskolin: equimolar
Procedure: The reaction was stopped after 3 minutes by the addition of ice cold ethanol. cAMP was measured in duplicate using a commercial enzyme immunoassay (EIA) kit (Amersham, United Kingdom) after extraction via the liquid-phase method according to manufacturer's instructions. The effect of forskolin (10^−6M) on C. albicans colony formation was determined using the same procedures as for α-MSH peptides.

[5] = tested on: S. aureus (ATCC 29213); test: Trial of melanocortin peptides on S. aureus viability (colony formation); assay type: cell-based; details: peptide 10^−15 to 10^−4M, 2 hours at 37° C., compared to controls
Procedure: S. aureus (ATCC 29213) and C. albicans (clinical isolate) were obtained from the collection of the Department of Microbiology, Ospedale Maggiore di Milano. C. albicans were maintained on Sabouraud'[…] periodically transferred to Sabouraud's agar plates and incubated for 48 hours at 28° C. To prepare stationary growth phase yeast, a colony was taken from the agar plate and transferred into 30 ml Sabouraud-dextrose broth and incubated for 72 hours at 32° C. Cells were centrifuged at 1000×g for 10 minutes and the pellet was washed twice with distilled water. Cells were counted and suspended in Hank's balanced salt solution (“HBSS”) to the desired concentration. Viability, determined by the exclusion of 0.01% methylene blue, remained >98%. […] Cells were then washed in cold distilled water and diluted with HBSS to a concentration of 100 organisms/ml. One ml aliquots were dispensed on blood agar plates and incubated for 24 hours at 37° C. Organism viability was estimated from the number of colonies formed.

[6] = vs α-MSH; cited from earlier work
[7] = tested on: HIV-1; details: acutely and chronically infected monocytes; cited from earlier work

KPV (Ac-Lys-Pro-Val-NH2) [α-MSH (11-13)]
relative potency in reducing C. albicans viability ([1]; 10^−6M): most effective | C. albicans colony forming units (CFU) [1]: significantly decreased C. albicans colony forming units; also recorded: greatly reduced | urokinase-enhanced S. aureus colony formation [2]: significantly inhibited this urokinase-enhancing effect; also recorded: significantly inhibited the enhancing effect of urokinase | killing of C. albicans by human neutrophils [3]: enhanced killing of C. albicans by human neutrophils | cAMP content of C. albicans [4]: enhanced cAMP content in the yeast | increase in cAMP compared with forskolin [4]: same order of magnitude as that induced by equimolar forskolin | S. aureus colony formation (CFU) [5]: significantly decreased S. aureus colony forming units; also recorded: inhibited S. aureus colony formation

HFRWGKPV (Ac-HFRWGKPV-NH2) [α-MSH (6-13)]
relative potency in reducing C. albicans viability ([1]; 10^−6M): most effective

NH2-Lys-Pro-Val-AcCys-CysAc-Val-Pro-Lys-NH2 [KPV dimer]
effectiveness against microbes compared with α-MSH (11-13) ([1]; S. aureus and C. albicans): at least as effective as α-MSH (11-13) against microbes | C. albicans colony forming units (CFU) [1]: significantly decreased C. albicans colony forming units; also recorded: inhibited C. albicans colony formation | S. aureus colony formation (CFU) [5]: significantly decreased S. aureus colony forming units; also recorded: inhibited S. aureus colony formation

[Nle^4,D-Phe^7]-α-MSH
potency in reducing fever relative to the parent peptide [6]: approximately 10 times

SYSMEHFRWGKPV [α-MSH (1-13)]
HIV-1 replication [7]: inhibits HIV-1 replication in acutely and chronically infected monocytes | C. albicans colony forming units (CFU) [1]: significantly decreased C. albicans colony forming units; also recorded: greatly reduced | urokinase-enhanced S. aureus colony formation [2]: significantly inhibited this urokinase-enhancing effect; also recorded: significantly inhibited the enhancing effect of urokinase | killing of C. albicans by human neutrophils [3]: enhanced killing of C. albicans by human neutrophils | cAMP content of C. albicans [4]: enhanced cAMP content in the yeast | increase in cAMP compared with forskolin [4]: same order of magnitude as that induced by equimolar forskolin | S. aureus colony formation (CFU) [5]: significantly decreased S. aureus colony forming units; also recorded: inhibited S. aureus colony formation

MEHFRWG (Ac-MEHFRWG-NH2) [α-MSH (4-10)]
inhibition of C. albicans CFU ([1]; 10^−6M): approximately 50%

ACTH (18-39): ACTH fragment (18-39) (CLIP) [reference compound]
relative potency in reducing C. albicans viability ([1]; 10^−6M): did not reduce C. albicans viability | reduction of C. albicans CFU at higher concentrations [1]: ineffective

ACTH (1-39): adrenocorticotropic hormone (1-39), melanocortin peptide (SYSMEHFRWGKPVGKKRRPVKVYPNGAEDESAEAFPLEF; Corticotropin; UniProt P01189 138-176, looked up) [reference compound]
relative potency in reducing C. albicans viability ([1]; 10^−6M): did not reduce C. albicans viability | reduction of C. albicans CFU at higher concentrations [1]: ineffective
